The results in this text go back to the supplement of paper PMC11616607.

One assay relates to HOSE2C. The experiment in a line: drug sensitivity score (DSS) from 5-point dose-response viability curve (DSS (area-under-curve based score)); higher = more sensitive (stronger growth inhibition or killing); extreme values may be limits of the assay. To be noted: exposure time: 72 h; concentration range: 5 concentrations over 10,000-fold range. The gist of the method:
(§1)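 Ovarian cancer and normal ovarian cell lines were tested in 384-well plates. Drugs were acoustically dispensed (Echo 550) in DMSO or water at five concentrations spanning a 10,000-fold range, then 1,500 cells per well were added and incubated 3 days at 37°C, 5% CO2. Viability was read by CellTiter-Glo luminescence on a PHERAstar FS. Drug sensitivity score was derived per cell line and drug with Breeze software; higher means more sensitive, zero means no response.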
Take `C[C@@]1(C(=O)Nc2ccc(F)nc2)CCCN1c1nc(Nc2cc(C3CC3)n[nH]2)c2cccn2n1`: the drug sensitivity score was 18.7.
As for `Nc1nc2[nH]cc(CCc3ccc(C(=O)N[C@@H](CCC(=O)O)C(=O)O)cc3)c2c(=O)[nH]1` [Pemetrexed], the drug sensitivity score turned out to be 20.4.
In turn, `CCC(C)n1ncn(-c2ccc(N3CCN(c4ccc(OCC5COC(Cn6cncn6)(c6ccc(Cl)cc6Cl)O5)cc4)CC3)cc2)c1=O` (stereo unspecified) [Itraconazole] showed a drug sensitivity score of 0.
Compound `NCC(=O)Nc1ccc(-n2nc(C(F)(F)F)cc2-c2ccc3c(ccc4ccccc43)c2)cc1` gave a drug sensitivity score of 8.9.
Take `O=C1CN2Cc3c(ccc(Cl)c3Cl)N=C2N1` [Anagrelide]: the drug sensitivity score was 0.
The same measure, in the same setting: in the case of `CN1CCC(COc2cnc(-c3cccc(Cn4nc(-c5cccc(C#N)c5)ccc4=O)c3)nc2)CC1` [Tepotinib] it was 0; in that of `Cc1cc2c(F)c(Oc3ncnn4cc(OC[C@@H](C)O)c(C)c34)ccc2[nH]1` [Brivanib], 0.
`COc1cc2c(NC3CCN(C(C)C)CC3)nc(N3CCC(F)(F)CC3)nc2cc1OCCCN1CCCC1` [UNC0642] displayed a drug sensitivity score of 0.
For `Nc1ccn([C@@H]2O[C@H](CO)[C@@H](O)C2(F)F)c(=O)n1` [Gemcitabine], the drug sensitivity score came to 6.7.
The compound `Cc1ccc(C(=O)Nc2ccc(CN3CCN(C)CC3)c(C(F)(F)F)c2)cc1C#Cc1cnc2cccnn12` [Ponatinib] showed a drug sensitivity score of 8.5.
With `Oc1ccc2c(c1)CC[C@H](c1ccccc1)[C@@H]2c1ccc(OCCN2CCCC2)cc1` [Lasofoxifene], the drug sensitivity score turned out to be 0.
Take `NCCNc1ccc(NCCN)c2c1C(=O)c1ccncc1C2=O` [Pixantrone]: the drug sensitivity score came to 0.
With `COc1cc(Nc2ncc(F)c(Nc3ccc4c(n3)N(COP(=O)(O)O)C(=O)C(C)(C)O4)n2)cc(OC)c1OC` [Fostamatinib], the drug sensitivity score was 8.4.
In turn, `C=CC(=O)Nc1cccc(Nc2nc(Nc3ccc(N4CCN(C(C)=O)CC4)cc3OC)ncc2C(F)(F)F)c1` [Rociletinib] yielded a drug sensitivity score of 6.8.
As for `O=C(O)c1ccc(O)c2ncccc12` [IOX-1], the drug sensitivity score was determined as 3.4.
`CCCCCOC(=O)Nc1nc(=O)n([C@@H]2O[C@H](C)[C@@H](O)[C@H]2O)cc1F` [Capecitabine] gave a drug sensitivity score of 0.
`COc1ccc2[nH]cc(/C=C3\C(=O)Nc4ccc(NC(=O)CCN5CCCCC5)cc43)c2c1` gave a drug sensitivity score of 6.1.
The compound `CNC(=O)c1nn(C)c2c1C(C)(C)Cc1cnc(Nc3ccc(N4CCN(C)CC4)cc3)nc1-2` [Milciclib] returned a drug sensitivity score of 7.4.
The compound `C[C@H]1C[C@@H]2[C@H]([C@@H](O)C[C@@]3(C)[C@H]2CC[C@]3(O)C(=O)CO)[C@@]2(C)C=CC(=O)C=C12` [Methylprednisolone] had a drug sensitivity score of 0.
For `CCc1c(C(=O)C(N)=O)c2c(OCC(=O)O)cccc2n1Cc1ccccc1` [Varespladib], the drug sensitivity score is 0.
Turning to `Cc1ccc(C(=O)Nc2ccc(Oc3cc4cnn(C)c4cc3-c3cn[nH]c3)c(F)c2)c(=O)n1-c1ccc(F)cc1` [Merestinib], the drug sensitivity score amounted to 0.
Compound `Clc1ccccc1C(c1ccccc1)(c1ccccc1)n1cccn1` [TRAM-34] gave a drug sensitivity score of 0.
In turn, `Cc1cc(Nc2cc(N3CCN(C)CC3)nc(/C=C/c3ccccc3)n2)n[nH]1` [ENMD-2076] gave a drug sensitivity score of 10.3.
`O=C(Nc1cccc(Nc2ncc(Br)c(NCCc3cnc[nH]3)n2)c1)N1CCCC1` [BX-912] showed a drug sensitivity score of 8.
In turn, `COc1cc(OC)c(/C=C/S(=O)(=O)Cc2ccc(OC)c(NCC(=O)O)c2)c(OC)c1` [Rigosertib] gave a drug sensitivity score of 20.8.
The compound `CCS(=O)(=O)c1cccc(-c2cc(C(=O)NC3CCN(C)CC3)c(C)c3[nH]c4ncc(C)cc4c23)c1` [TAK-901] returned a drug sensitivity score of 7.4.
Consider `CC(C)NC(=O)COc1cccc(-c2nc(Nc3ccc4[nH]ncc4c3)c3ccccc3n2)c1` [KD025], for which the drug sensitivity score stood at 0.
Consider `COc1cccc(-c2ccc(NC(=O)C3=C(C(=O)O)CCC3)c(F)c2)c1` [Vidofludimus], for which the drug sensitivity score was found to be 3.9.
`C=CCN(/C=C1/C(=O)O[C@H](COC)[C@@]2(C)C1=C(O)C(=O)C1=C2[C@H](OC(C)=O)C[C@]2(C)C(=O)CC[C@@H]12)CC=C` [Sonolisib] had a drug sensitivity score of 0.6.
The same measure, in the same setting: in the case of `C=C(c1ccc(C(=O)O)cc1)c1cc2c(cc1C)C(C)(C)CCC2(C)C` [Bexarotene] it was 0; in that of `CC1CCC(n2c3cnccc3c3cnc(Nc4ccc5c(n4)CCN(C(=O)CO)C5)nc32)CC1` (stereo unspecified) [AMG-925], 0.

The next assay relates to Ovsaho. The description is as above. The conditions noted are these: exposure time: 72 h; concentration range: 5 concentrations over 10,000-fold range. In a few lines: as §1
`C[C@@]1(C(=O)Nc2ccc(F)nc2)CCCN1c1nc(Nc2cc(C3CC3)n[nH]2)c2cccn2n1` came in with a drug sensitivity score of 7.5.
Same read-out and setting: the value for `Nc1nc2[nH]cc(CCc3ccc(C(=O)N[C@@H](CCC(=O)O)C(=O)O)cc3)c2c(=O)[nH]1` [Pemetrexed] was 6.1; that for `CCC(C)n1ncn(-c2ccc(N3CCN(c4ccc(OCC5COC(Cn6cncn6)(c6ccc(Cl)cc6Cl)O5)cc4)CC3)cc2)c1=O` (stereo unspecified) [Itraconazole] was 0.2; that for `NCC(=O)Nc1ccc(-n2nc(C(F)(F)F)cc2-c2ccc3c(ccc4ccccc43)c2)cc1` was 4.9.
In turn, `O=C1CN2Cc3c(ccc(Cl)c3Cl)N=C2N1` [Anagrelide] had a drug sensitivity score of 0.
In turn, `CN1CCC(COc2cnc(-c3cccc(Cn4nc(-c5cccc(C#N)c5)ccc4=O)c3)nc2)CC1` [Tepotinib] showed a drug sensitivity score of 0.8.
`Cc1cc2c(F)c(Oc3ncnn4cc(OC[C@@H](C)O)c(C)c34)ccc2[nH]1` [Brivanib] showed a drug sensitivity score of 0.
Regarding `COc1cc2c(NC3CCN(C(C)C)CC3)nc(N3CCC(F)(F)CC3)nc2cc1OCCCN1CCCC1` [UNC0642], the drug sensitivity score came out at 0.
The same measure, in the same setting: the value for `Nc1ccn([C@@H]2O[C@H](CO)[C@@H](O)C2(F)F)c(=O)n1` [Gemcitabine] was 3.3; that for `Cc1ccc(C(=O)Nc2ccc(CN3CCN(C)CC3)c(C(F)(F)F)c2)cc1C#Cc1cnc2cccnn12` [Ponatinib] was 7.6; that for `Oc1ccc2c(c1)CC[C@H](c1ccccc1)[C@@H]2c1ccc(OCCN2CCCC2)cc1` [Lasofoxifene] was 0.
Take `NCCNc1ccc(NCCN)c2c1C(=O)c1ccncc1C2=O` [Pixantrone]: the drug sensitivity score was found to be 0.3.
`COc1cc(Nc2ncc(F)c(Nc3ccc4c(n3)N(COP(=O)(O)O)C(=O)C(C)(C)O4)n2)cc(OC)c1OC` [Fostamatinib] had a drug sensitivity score of 2.4.
Compound `C=CC(=O)Nc1cccc(Nc2nc(Nc3ccc(N4CCN(C(C)=O)CC4)cc3OC)ncc2C(F)(F)F)c1` [Rociletinib] came in with a drug sensitivity score of 6.9.
For `O=C(O)c1ccc(O)c2ncccc12` [IOX-1], the drug sensitivity score worked out at 1.6.
